Literature values in patent US20220184234A1, “METABOLIC TARGETING OF LOW GRADE TUMORS” (SonalaSense, Inc., priority 2020, published 2022).

Test system: tumor
[1] = all experimental groups (5-ALA and FUS)

NCC(=O)CCC(=O)O [5-ALA, 5-aminolevulinic acid]
normalized tumor volume (5-ALA only group (no FUS), untreated controls 32±10 mm^3): 24±6 mm^3 | subjects surviving past 60 days (5-ALA, group sonicated at multiple points within the tumor (MP group)): 50% | survival compared to control animals [1]: improved survival | tumor growth compared to control animals [1]: inhibited tumor growth | tissue damage (rats, 20 mg/kg 5-ALA, sonication at 55.2 W/cm^2 for 20 minutes): suffered tissue damage
